Consider one molecule from EP0393104B1, “MEASUREMENT OF PGE 2 (PROSTAGLANDIN E 2) LEVELS IN PATIENTS WITH CHRONIC INFLAMMATORY BOWEL DISEASE” (priority 1987, dated 1989).

Several values for one entry are separate records, joined by “and”; a condition that tells them apart may be missing. Identical values can stand only once.

Data set [1] concerns PGE2. The experiment in a line: Equilibrium in vivo dialysis of rectum with radioimmunoassay of PGE2 (enema trial). The arrangement: species or system patients. Conditions: median, enema groups irrespective of SAZ (+/-), SAZ line = no enema, with SAZ maintenance. How it is done:
The study was carried out as a block-randomized, double-blind trial. Before entry, clinical disease activity was assessed, and equilibrium in vivo dialysis of rectum was performed before the assessment of endoscopic and histologic disease activity. […] Primary stratification was done for patients already on maintenance treatment with SAZ. At day 15 the equilibrium in vivo dialysis of rectum was repeated, and clinical, endoscopic, and histologic activities were reassessed. Patients in complete clinical and endoscopic remission discontinued treatment with enemas, whereas the remainder continued therapy for another 14 days. In all cases equilibrium in vivo dialysis of rectum and assessment of disease activity were repeated at day 29. Withdrawal criteria included intolerance to treatment or deterioration (severe disease, C3) requiring systemic glucocorticoids.
In vivo dialysis of rectum was performed after insertion of a 12-cm-long dialysis bag (volume 4 ml; Visking seamless cellulose tubing 8/32 filled with Rheomacrodex@; Pharmacia, Uppsala, Sweden) containing 10% dextran (mean mol wt 40,000) in saline into the emptied rectum. To obtain equilibrium with the fluid covering the surface of rectal mucosa, the dialysis bag was left for 4 h before its contents were emptied into a test tube, which was stored immediately at -20°C (rectal dialysate) for analysis within 2 wk.
Prostaglandin E2 was measured as previously described in detail (K. Bukhave, J. Rask-Madsen J, 'Prostaglandin E2 in jejunal fluids and its potential diagnostic value for selecting patients with indomethacin-sensitive diarrhoea', 1981 European Journal of Clinical Investigation, 11:191-7) by a radioimmunologic method validated by gas chromatography-mass spectrometry (K. Bukhave, K Green, J. Rask-Madsen, 'Comparison of radioimmunological determinations with gas chromatography mass spectrometry dosage', 1983 Biomedical Mass Spectrometry, 10:265-8). The method included purification by extraction with ethylacetate/cyclo- hexane (1:1) and chromatography on microcolumns of Sephadex LH-20 (Pharmacia AB, Sweden) before performing the radioimmunoassay itself on the eluate fraction containing PGE2.

The subject of data set [2] is inactive ulcerative colitis. The experiment in a line: Double-blind maintenance treatment with SAZ or placebo after rise of PGE2: relapse/remission. Type of data set: in vivo, patients. The text has this:
Patients fulfilling the following entry criteria were candidates for the study: (a) proven UC. […] Patients were considered in remission when symptom-free (i.e., stool frequency 2 x a day, without discharge of blood, pus, or mucus from the rectum), with normal sigmoidoscopic appearance, and with no significant inflammation on rectal biopsy.
(§1) Equilibrium in vivo dialysis of faeces as well as equilibrium in vivo dialysis of rectum were done in consenting patients fulfilling the entry criteria. Subsequently, SAZ treatment was stopped and the patients were observed free of medication. Evaluation of clinical disease activity, in addition to sigmoidoscopy with rectal biopsies for assessing endoscopic and histologic disease activity, were done at scheduled visits after two weeks, after two, six, and 12 months, and in-between, if indicated by recurrence of colitic symptoms. A relapse was defined as a recurrence of colitic symptoms accompanied by endoscopic signs of inflammation. If a relapse occurred the patient was withdrawn. At the scheduled visits also in vivo dialysis measurements were carried out. […]

Data set [3] has as its system PGE2. The experiment in a line: Equilibrium in vivo dialysis of faeces with radioimmunoassay of PGE2 (SAZ withdrawal study). Particulars: individual patients randomized to SAZ (tablets 0.5 g; 2 tablets b.i.d.) after raised PGE2; first figure of the cell.
Description: as §1
Equilibrium in vivo dialysis of faeces was carried out as previously described, by pooling the contents of five swallowed dialysis bags following their intestinal transit (faecal dialysate). These dialysates were analyzed for concentrations of PGE2 (faecal PGE2).
(§2) Prostaglandin E2 was measured as previously described by a radioimmunological method validated by gas chromatograghy mass spectrometry. […]

For data set [4], the system named is PGE2. The experiment in a line: Equilibrium in vivo dialysis of rectum with radioimmunoassay of PGE2 (SAZ withdrawal study). Further details: species or system patients.
Description: as §1
Equilibrium in vivo dialysis of rectum was performed after insertion of a 12-cm-long dialysis bag into the emptied rectum as described above. The bag was left for four hours when it was removed and its contents (rectal dialysate) were analyzed for concentrations of PGE2 (rectal PGE2).
as §2

A further data set deals with ulcerative colitis. Particulars: background statement; cited from earlier work.

`O=C(O)c1cc(/N=N/c2ccc(S(=O)(=O)Nc3ccccn3)cc2)ccc1O` [SAZ, sulphasalazine]: the “Concentrations of PGE2 in rectal lumen” value in the data set on PGE2 [1] (clinical activity 0 (inactive)) is 0.61(n=3) (0.47-2.2) ng/ml; in the data set with PGE2 [1] (clinical activity 1 (mild)) it was 9.4(n=5) (0.35-36) ng/ml; in the data set with PGE2 [1] (clinical activity 2-3 (moderate-severe)), 8.5(n=9) (0.32-52) ng/ml; in the data set on PGE2 [1] (endoscopic activity 0 (inactive)), 0.61(n=3) (0.47-22) ng/ml; with PGE2 [1] (endoscopic activity 1 (mild)) it was 3.2(n=3) (0.35-5.6) ng/ml; with PGE2 [1] (endoscopic activity 2 (moderate)), 8.2(n=8) (0.32-36) ng/ml. The “Concentrations of PGE2 in rectal lumen” value with PGE2 [1] (endoscopic activity 3 (severe)) is reported as 36(n=3) (8.9-52) ng/ml. Moreover, the “remission reinstated in relapsing patients by resuming SAZ alone” value in data set [2] (SAZ 2-3 g/day orally, 14 relapsing patients) is recorded as “seven cases”. The “relapse within the six-month treatment period” value in data set [2] (SAZ 2 g/day group n=6, placebo four of five, p<0.05, Fisher's exact test) is given as “none of the six patients”. Moreover, the “Fecal PGE2 levels 6 months after R” value with PGE2 [3] is 0.20 ng/ml and 0.38 ng/ml and 0.43 ng/ml and 0.14/ND ng/ml and 0.32 ng/ml and 0.22 ng/ml. Besides, the PGE2 concentrations result with PGE2 [4] (SAZ group n=6, six months after randomisation) is “decreased toward control levels”. In addition, the “Rectal PGE2 levels 6 months after R” value in the data set with PGE2 [4] (individual patients randomized to SAZ (tablets 0.5 g; 2 tablets b.i.d.) after raised PGE2, second figure of the cell) is 0.64 ng/mL and 0.59 ng/mL and 2.11 ng/mL and 0.30 ng/mL and 0.26 ng/mL. The “patients allergic to SAZ or in other ways intolerant of the drug” value in the data set on ulcerative colitis is on record as 10-20%.
